Experimental findings from US11427586B2, “1,2,4-oxadiazole derivatives as liver X receptor agonists” (NOVARTIS AG, priority 2019, dated 2022) are described below.

The subject of experiment [1] is SCD1. Nature of the experiment: Measurement of SCD1 expression in SZ95-SCD1-HiBit cells (HiBiT assay). As to conditions: Homo sapiens; for EC50: read-out: HiBit EC50. Type of experiment: cell-based. The text has this: Measurement of SCD1 Expression in SZ95-SCD1-HiBit Cells
SCD1 expression levels in SZ95 cells were quantitated using the HiBiT system (Promega) in which a small peptide sequence (SmBiT) with a larger protein (LgBiT) reconstitutes luciferase activity and can generate a luminescent signal used for quantitation. SZ95-SCD1-HiBit cells were generated by editing the SCD1 gene of SZ95 cells resulting in the addition of an 8 amino acid linker sequence (gssggssg, SEQ ID NO:1) followed by an 11-amino acid SmBiT sequence (vsgwrlfkkis, SEQ ID NO:2) at the carboxy-terminus of the SCD1 protein. The gRNA targeting sequence used was […] (SEQ ID NO: 3) and the SCD1 insertion oligonucleotide encoding the SmBiT sequence was:
SZ95-SCD1-HiBit cells were seeded in 384-well cell culture white plates at a density of 3000 cells/30 μl. Water was added to edge wells to avoid evaporation. Cells were incubated in a humidified incubator with 5% CO2 at 37° C. overnight. Tested compounds were diluted at a ratio of 1:3 in DMSO using an Agilent BRAVO Automated Liquid Handling Platform and, after further serial dilutions, added to cells at final concentrations starting from 18 μM. 2-(3-(3-((2-chloro-3-(trifluoromethyl)benzyl)(2,2-diphenylethyl)amino)propoxy)phenyl)acetic acid was used as a reference compound in each plate. Cells in the assay plate were incubated in a humidified incubator with 5% CO2 at 37° C. for 48 h.
The assay plates were removed from the incubator and allowed to equilibrate to room temperature. Nano-Glo® HiBiT Detection Reagent (Promega; a mixture of Nano-Glo HiBiT Detection Buffer, Nano-Glo HiBiT Detection Substrate, and LgBiT protein, according to the manufacturer's instructions) was added into assay plates, at a volume equal to cell culture medium in each well. Plates were placed on an orbital shaker at a speed of 300-600 rpm for 10 min at room temperature, and read on an EnVision Plate Reader using luminescence detection with a 1 second read time.
The assay measures the increase in SCD1 protein production in vitro. Amax refers to the percent EC50 of the tested compound compared to a reference compound, 2-(3-(3-((2-chloro-3-(trifluoromethyl)benzyl)(2,2-diphenylethyl)amino)propoxy)phenyl)acetic acid.
In general terms: With HiBiT, luminescence reflects the tagged protein that the partner subunit can reach.

For experiment [2], the system named is SZ95 sebocytes. Nature of the experiment: Sentinel Lipid Assay (SLA), desaturation index in SZ95 sebocytes. The class given is cell-based. As to conditions: Homo sapiens, 72 h; for EC50: desaturation index, lowest dose used 4.6 nM, read-out: SLA EC50. On the procedure: Sentinel Lipid Assay (SLA)
The sentinel lipid assay was used quantify the change in the global desaturation index in SZ95 sebocytes upon administration of certain LXR agonist compounds provided herein. The assay measures a smaller subset of lipid analytes in meibum (termed “sentinel lipids”) which would model the global changes the population of both saturated and desaturated lipids in the cells. In order to define this smaller subset of lipids, a complete lipid profile was recorded on dose response curves (eight levels from 4 nM to 10 uM) of Compounds 1-72. An elastic net regression model was applied separately to both the saturated and desaturated lipids to determine the minimum combination of coefficients and analytes, which could be used to adequately model the total population of lipids. The elastic net model was able to reduce the behavior of 425 lipids to 11 lipids and the correlation between the desaturation indices observed using the complete set of lipids with from the 11 sentinel lipids was 0.96.
A medium throughput assay was created using this reduced set of sentinel lipids. A single batch is defined as triplicate examples of three unique plates (i.e., a single batch of cells is used to create nine plates for LC-MSMS analysis). Lipids were extracted from the cells using a 1:1 mixture of methylene chloride/methanol containing 10 nM of deuterated standards of triglycerides, which are used as internal standards for quantitating the lipid abundance. The lipids were separated prior to mass spectrometric analysis using a five minute HPLC gradient. The abundance of the sentinel lipids and the internal standards are measured using multiple reaction monitor mode (MRM) on a triple quadrupole mass spectrometer. The data was transformed from total ion current to nmoles/10^6 cells, which are multiplied by the coefficients from the elastic net model to determine the effective desaturated and saturated content, and therein the desaturation index of the dosed cells. In order to compare compounds from multiple batches with one another, the measure raw desaturation index was normalized by dividing it by the desaturation index of the DMSO dosed cells, and all data was assessed as the fraction by which the compound increases the desaturation index above 1.
SZ95 (immortalized human sebaceous gland cells) cells were seeded in Greiner bio-one 96-well polypropylene plates that were pre-treated with 50 μg/mL Human Plasma Fibronectin (Thermo Fisher Scientific) at a density of 10^4 cells/135 μl. Cells were incubated in a humidified incubator with 5% CO2 at 37° C. overnight. Test compounds were diluted at a ratio of 1:3 and added to cells at final concentrations starting from 10 μM. 2-(3-(3-((2-chloro-3-(trifluoromethyl)benzyl)(2,2-diphenylethyl)amino)propoxy)phenyl)acetic acid was used as a positive control reference compound in each plate. Cells in the assay plate were incubated in a humidified incubator with 5% CO2 at 37° C. for 72 h.
Culture medium was removed from the cells and cells in culture plates were washed with ice cold phosphate buffered saline three times. Plates were heat sealed and stored in a −80° C. freezer prior to Sentinel lipid assay. The Amax value refers to the percent EC50 of the tested compound compared to a reference compound, 2-(3-(3-((2-chloro-3-(trifluoromethyl)benzyl)(2,2-diphenylethyl)amino)propoxy)phenyl)acetic acid.

The mark [3] stands for this setting: 48 h, normalized Amax based on the reference compound Amax of 100%, read-out: HiBit Normalized Amax.
Where [4] appears, read: SZ95-SCD1-HiBit cells, 48 h, SCD1 protein production, luminescence, initial dilution 1:3 in DMSO.
The mark [5] stands for this setting: SZ95-SCD1-HiBit cells, 48 h, compared to reference compound, read-out: HiBit Amax.
Where [6] appears, read: normalized Amax based on the reference compound Amax of 100%, read-out: SLA Normalized Amax.
The mark [7] stands for this setting: SZ95 cells, compared to reference compound, read-out: SLA Amax.

SMILES strings stand for the structures. Like-named read-outs stand apart in the source and are kept apart here. Bounds are passed on as bounds.

A word on the EC50: it is the concentration that produces a half-maximal response.

Consider `CS(=O)(=O)c1ccccc1Oc1ccc(-c2noc(CN3C(=O)N(CCC4CCOCC4)C4(CCN(C5CCC5)CC4)C3=O)n2)cc1C(F)(F)F` [Compound 17, 8-cyclobutyl-3-((3-(4-(2-(methylsulfonyl)phenoxy)-3-(trifluoromethyl)phenyl)-1,2,4-oxadiazol-5-yl)methyl)-1-(2-(tetrahydro-2H-pyran-4-yl)ethyl)-1,3,8-triazaspiro[4.5]decane-2,4-dione], for which the Emax was 200% in experiment [1] (setting [3]), 190% in experiment [1] (setting [5]), 102% in experiment [2] (setting [6]) and 97.4% in experiment [2] (setting [7]). Also, the values for the 50% effective concentration (EC50) in experiment [1] (setting [4]) and in experiment [2] (SZ95 cells) were 0.041 nM and at most 4.6 nM, respectively.

`CC(C)CS(=O)(=O)c1ccccc1Oc1ccc(-c2noc(CN3C(=O)N(CCN4CCOCC4)C4(CCN(C(=O)c5ccncn5)CC4)C3=O)n2)cc1C(F)(F)F` [Compound 34, 3-((3-(4-(2-(isobutylsulfonyl)phenoxy)-3-(trifluoromethyl)phenyl)-1,2,4-oxadiazol-5-yl)methyl)-1-(2-morpholinoethyl)-8-(pyrimidine-4-carbonyl)-1,3,8-triazaspiro[4.5]decane-2,4-dione]: the Emax in experiment [1] (setting [3]) was 85.7%; in experiment [1] (setting [5]), 81.5%; in experiment [2] (setting [6]), 171%; in experiment [2] (setting [7]), 164%. Besides, the EC50 in experiment [1] (setting [4]) was 0.38 nM; in experiment [2] (SZ95 cells), at most 4.6 nM.

Take `CC(C)N(C)S(=O)(=O)c1ccccc1Oc1ccc(-c2noc(CN3C(=O)N(CCN4CCOCC4)C4(CCN(C5CCC5)CC4)C3=O)n2)cc1C(F)(F)F` [Compound 11, 2-(4-(5-((8-cyclobutyl-1-(2-morpholinoethyl)-2,4-dioxo-1,3,8-triazaspiro[4.5]decan-3-yl)methyl)-1,2,4-oxadiazol-3-yl)-2-(trifluoromethyl)phenoxy)-N-isopropyl-N-methylbenzenesulfonamide]: the Emax was 95.9% in experiment [1] (setting [3]), 91.2% in experiment [1] (setting [5]), 140% in experiment [2] (setting [6]) and 134% in experiment [2] (setting [7]). The EC50 in experiment [1] (setting [4]) is 0.058 nM; in experiment [2] (SZ95 cells), at most 4.6 nM.

Turning to `CCN1CCC2(CC1)C(=O)N(Cc1nc(-c3ccc(Oc4ccccc4S(=O)(=O)CC(C)C)c(C(F)(F)F)c3)no1)C(=O)N2CCN1CCOCC1` [Compound 24, 8-ethyl-3-((3-(4-(2-(isobutylsulfonyl)phenoxy)-3-(trifluoromethyl)phenyl)-1,2,4-oxadiazol-5-yl)methyl)-1-(2-morpholinoethyl)-1,3,8-triazaspiro[4.5]decane-2,4-dione], the Emax in experiment [1] (setting [3]) was 117%; in experiment [1] (setting [5]) it was 111%; in experiment [2] (setting [6]), 164%; in experiment [2] (setting [7]), 158%. For the same compound, the EC50 in experiment [1] (setting [4]) is 0.05 nM; in experiment [2] (SZ95 cells) it was at most 4.6 nM.

For the compound `CC1(C)C(=O)N(Cc2nc(-c3ccc(Oc4ccccc4C(F)(F)F)c(C(F)(F)F)c3)no2)C(=O)N1CCN1CCOCC1` [Compound 41, 5,5-dimethyl-1-(2-morpholinoethyl)-3-((3-(3-(trifluoromethyl)-4-(2-(trifluoromethyl)phenoxy)phenyl)-1,2,4-oxadiazol-5-yl)methyl)imidazolidine-2,4-dione], the Emax in experiment [1] (setting [3]) worked out at 93%; in experiment [1] (setting [5]) it was 88.4%; in experiment [2] (setting [6]), 92.2%; in experiment [2] (setting [7]) it was 88.5%. In addition, the 50% effective concentration (EC50) in experiment [1] (setting [4]) was 0.167 nM; in experiment [2] (SZ95 cells), at most 4.6 nM.

Regarding `CC(C)CS(=O)(=O)c1ccccc1Oc1ccc(-c2noc(CN3C(=O)N(Cc4ccccn4)C(C)(C)C3=O)n2)cc1C(F)(F)F` [Compound 51, 3-((3-(4-(2-(isobutylsulfonyl)phenoxy)-3-(trifluoromethyl)phenyl)-1,2,4-oxadiazol-5-yl)methyl)-5,5-dimethyl-1-(pyridin-2-ylmethyl)imidazolidine-2,4-dione], the Emax stood at 88.7% in experiment [1] (setting [3]), 84.4% in experiment [1] (setting [5]), 120% in experiment [2] (setting [6]) and 116% in experiment [2] (setting [7]). For the same compound, the results for the EC50 in experiment [1] (setting [4]) and in experiment [2] (SZ95 cells) were 12.2 nM and at most 4.6 nM, respectively.

With `CC(C)CS(=O)(=O)c1ccccc1Oc1ccc(-c2noc(CN3C(=O)N(CCN4CCOCC4)C4(CCN(Cc5ccc(O)cc5)CC4)C3=O)n2)cc1C(F)(F)F` [Compound 20, 8-(4-hydroxybenzyl)-3-((3-(4-(2-(isobutylsulfonyl)phenoxy)-3-(trifluoromethyl)phenyl)-1,2,4-oxadiazol-5-yl)methyl)-1-(2-morpholinoethyl)-1,3,8-triazaspiro[4.5]decane-2,4-dione], the Emax was 93.7% in experiment [1] (setting [3]), 89.1% in experiment [1] (setting [5]), 155% in experiment [2] (setting [6]) and 149% in experiment [2] (setting [7]). In addition, the EC50 in experiment [1] (setting [4]) was 0.078 nM; in experiment [2] (SZ95 cells), at most 4.6 nM.

For `CC1(C)NC(=O)N(Cc2nc(-c3ccc(Oc4ccccc4C(F)(F)F)c(C(F)(F)F)c3)no2)C1=O` [Compound 71, 5,5-dimethyl-3-((3-(3-(trifluoromethyl)-4-(2-(trifluoromethyl)phenoxy)phenyl)-1,2,4-oxadiazol-5-yl)methyl)imidazolidine-2,4-dione], the Emax in experiment [1] (setting [3]) was determined as 68.7%; in experiment [1] (setting [5]), 65.3%; in experiment [2] (setting [6]) it was 51.9%; in experiment [2] (setting [7]), 49.8%. Besides, the figures for the EC50 in experiment [1] (footnote a: initial dilution for the compound 1:100 in assay medium rather than 1:3 in DMSO) and in experiment [2] (SZ95 cells) were 139 nM and over 10000 nM, respectively.

Consider `O=C1N(Cc2nc(-c3ccc(Oc4ccccc4C(F)(F)F)c(C(F)(F)F)c3)no2)C(=O)C2(CCN(C3CCC3)CC2)N1CCN1CCOCC1` [Compound 13, 8-cyclobutyl-1-(2-morpholinoethyl)-3-((3-(3-(trifluoromethyl)-4-(2-(trifluoromethyl)phenoxy)phenyl)-1,2,4-oxadiazol-5-yl)methyl)-1,3,8-triazaspiro[4.5]decane-2,4-dione], for which the Emax in experiment [1] (setting [3]) worked out at 82.2%; in experiment [1] (setting [5]), 78.2%; in experiment [2] (setting [6]), 94.5%; in experiment [2] (setting [7]), 90.7%. Also, the EC50 in experiment [1] (setting [4]) was 0.102 nM; in experiment [2] (SZ95 cells), at most 4.6 nM.
